Holding throughout (format): biochemical
One assay concerns the target C-MET (Homo sapiens, UniProt P08581). Nature of the assay: Enzymatic kinase assay (ADP-GLO), C-MET. The protocol: (§1) This example illustrates an enzymatic assay to determine the inhibitory activity of exemplary compounds of Formula (I) in an aspect of the invention.
All the kinase reactions were performed in 5 μL using tyrosine kinase buffer with 0.2 μg/μL poly (Glu4, Tyr1) substrate, 10 μM ATP, serial dilution of the inhibitor, and incubated at room temperature for 60 min. After the indicated incubation times, 5 μL ADP-GLO™ reagent (Promega, Madison, Wis.) was added to the reactions and the plate was incubated at room temperature for 40 min. […] All 384-well assay plates were read using a GLOMAX™ Discover Microplate Luminometer from Promega (Madison, Wis.). To plot, analyze the data and calculate all kinase reaction biochemical values, both Microsoft Excel and Prism from GraphPad 7 Software (La Jolla, Calif.) were used.

The target of another assay is T1, AXL (Homo sapiens, UniProt P30530).
T1 sequence (P30530 26-894): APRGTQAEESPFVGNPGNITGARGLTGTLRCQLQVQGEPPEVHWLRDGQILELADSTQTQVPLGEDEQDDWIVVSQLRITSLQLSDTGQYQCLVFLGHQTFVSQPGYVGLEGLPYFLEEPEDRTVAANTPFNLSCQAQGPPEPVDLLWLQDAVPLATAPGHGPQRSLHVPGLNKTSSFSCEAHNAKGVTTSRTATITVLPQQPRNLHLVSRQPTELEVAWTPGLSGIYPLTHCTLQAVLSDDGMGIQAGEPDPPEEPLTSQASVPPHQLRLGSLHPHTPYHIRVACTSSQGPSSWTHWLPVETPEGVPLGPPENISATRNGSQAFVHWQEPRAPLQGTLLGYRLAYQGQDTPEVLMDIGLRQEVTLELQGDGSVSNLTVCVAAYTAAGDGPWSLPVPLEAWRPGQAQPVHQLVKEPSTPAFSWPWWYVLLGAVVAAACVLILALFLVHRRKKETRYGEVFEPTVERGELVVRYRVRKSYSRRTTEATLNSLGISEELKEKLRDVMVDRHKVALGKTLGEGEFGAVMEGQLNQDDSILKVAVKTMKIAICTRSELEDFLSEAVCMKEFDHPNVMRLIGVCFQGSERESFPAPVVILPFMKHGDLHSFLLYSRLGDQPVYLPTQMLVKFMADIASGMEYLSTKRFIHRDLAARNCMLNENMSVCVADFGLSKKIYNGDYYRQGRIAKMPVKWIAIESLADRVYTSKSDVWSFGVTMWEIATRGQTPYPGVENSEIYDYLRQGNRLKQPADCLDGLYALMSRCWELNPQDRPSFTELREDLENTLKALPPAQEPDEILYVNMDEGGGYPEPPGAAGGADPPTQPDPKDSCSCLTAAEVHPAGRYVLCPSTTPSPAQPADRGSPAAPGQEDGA
Nature of the assay: Enzymatic kinase assay (ADP-GLO), AXL. The settings on record: 10 μM ATP, poly (Glu4, Tyr1) substrate, 60 min room temperature, luminescence. The method, then:
as §1
(§2) All the kinase reactions were performed in 5 μL using tyrosine kinase buffer with 0.2 μg/μL poly (Glu4, Tyr1) substrate, 10 μM ATP, serial dilution of the inhibitor, and incubated at room temperature for 60 min. After the indicated incubation times, 5 μL ADP-GLO™ reagent (Promega, Madison, Wis.) was added to the reactions and the plate was incubated at room temperature for 40 min. Then, 10 μL of kinase detection reagent was added and after an incubation time of 40 min, luminescence was recorded and IC50 values were determined (Table 1). All 384-well assay plates were read using a GLOMAX™ Discover Microplate Luminometer from Promega (Madison, Wis.). To plot, analyze the data and calculate all kinase reaction biochemical values, both Microsoft Excel and Prism from GraphPad 7 Software (La Jolla, Calif.) were used.

Another assay deals with T2, MER (Homo sapiens, UniProt Q12866).
T2 sequence (Q12866 21-999): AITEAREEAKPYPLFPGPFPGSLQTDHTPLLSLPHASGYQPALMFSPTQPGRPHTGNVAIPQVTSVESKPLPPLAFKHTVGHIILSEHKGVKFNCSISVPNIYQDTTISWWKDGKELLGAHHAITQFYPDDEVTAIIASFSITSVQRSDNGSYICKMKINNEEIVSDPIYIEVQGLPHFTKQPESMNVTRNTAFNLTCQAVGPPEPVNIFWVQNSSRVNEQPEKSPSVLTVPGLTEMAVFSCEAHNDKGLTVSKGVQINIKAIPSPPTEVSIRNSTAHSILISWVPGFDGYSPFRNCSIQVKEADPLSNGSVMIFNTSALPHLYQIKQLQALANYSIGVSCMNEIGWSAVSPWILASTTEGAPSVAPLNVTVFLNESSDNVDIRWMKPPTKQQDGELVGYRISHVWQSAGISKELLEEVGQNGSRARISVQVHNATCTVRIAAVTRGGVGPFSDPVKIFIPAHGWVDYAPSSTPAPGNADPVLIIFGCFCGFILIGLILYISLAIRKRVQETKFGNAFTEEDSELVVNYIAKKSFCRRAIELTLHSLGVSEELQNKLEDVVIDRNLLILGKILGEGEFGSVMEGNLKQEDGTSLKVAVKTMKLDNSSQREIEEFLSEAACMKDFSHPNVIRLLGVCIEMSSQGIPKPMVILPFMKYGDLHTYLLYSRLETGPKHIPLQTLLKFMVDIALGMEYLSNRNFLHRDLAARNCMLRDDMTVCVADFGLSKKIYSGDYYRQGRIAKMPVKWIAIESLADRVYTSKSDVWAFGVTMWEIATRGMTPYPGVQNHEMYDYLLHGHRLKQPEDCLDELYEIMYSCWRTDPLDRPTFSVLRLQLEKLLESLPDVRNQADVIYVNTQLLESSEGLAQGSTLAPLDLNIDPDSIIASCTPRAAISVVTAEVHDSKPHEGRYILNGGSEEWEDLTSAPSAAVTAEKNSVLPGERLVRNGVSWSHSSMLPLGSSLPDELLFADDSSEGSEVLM
Nature of the assay: Enzymatic kinase assay (ADP-GLO), MER. Conditions: 10 μM ATP, poly (Glu4, Tyr1) substrate, 60 min room temperature, luminescence. The method, then: as §1, §2

The mark [1] stands for this setting: 10 μM ATP, poly (Glu4, Tyr1) substrate, 60 min room temperature, luminescence, read-out: Enzymatic assay IC50 (nM) C-MET.

Like-named read-outs stand apart in the source and are kept apart here.

Sequence of C-MET (P08581 25-1390): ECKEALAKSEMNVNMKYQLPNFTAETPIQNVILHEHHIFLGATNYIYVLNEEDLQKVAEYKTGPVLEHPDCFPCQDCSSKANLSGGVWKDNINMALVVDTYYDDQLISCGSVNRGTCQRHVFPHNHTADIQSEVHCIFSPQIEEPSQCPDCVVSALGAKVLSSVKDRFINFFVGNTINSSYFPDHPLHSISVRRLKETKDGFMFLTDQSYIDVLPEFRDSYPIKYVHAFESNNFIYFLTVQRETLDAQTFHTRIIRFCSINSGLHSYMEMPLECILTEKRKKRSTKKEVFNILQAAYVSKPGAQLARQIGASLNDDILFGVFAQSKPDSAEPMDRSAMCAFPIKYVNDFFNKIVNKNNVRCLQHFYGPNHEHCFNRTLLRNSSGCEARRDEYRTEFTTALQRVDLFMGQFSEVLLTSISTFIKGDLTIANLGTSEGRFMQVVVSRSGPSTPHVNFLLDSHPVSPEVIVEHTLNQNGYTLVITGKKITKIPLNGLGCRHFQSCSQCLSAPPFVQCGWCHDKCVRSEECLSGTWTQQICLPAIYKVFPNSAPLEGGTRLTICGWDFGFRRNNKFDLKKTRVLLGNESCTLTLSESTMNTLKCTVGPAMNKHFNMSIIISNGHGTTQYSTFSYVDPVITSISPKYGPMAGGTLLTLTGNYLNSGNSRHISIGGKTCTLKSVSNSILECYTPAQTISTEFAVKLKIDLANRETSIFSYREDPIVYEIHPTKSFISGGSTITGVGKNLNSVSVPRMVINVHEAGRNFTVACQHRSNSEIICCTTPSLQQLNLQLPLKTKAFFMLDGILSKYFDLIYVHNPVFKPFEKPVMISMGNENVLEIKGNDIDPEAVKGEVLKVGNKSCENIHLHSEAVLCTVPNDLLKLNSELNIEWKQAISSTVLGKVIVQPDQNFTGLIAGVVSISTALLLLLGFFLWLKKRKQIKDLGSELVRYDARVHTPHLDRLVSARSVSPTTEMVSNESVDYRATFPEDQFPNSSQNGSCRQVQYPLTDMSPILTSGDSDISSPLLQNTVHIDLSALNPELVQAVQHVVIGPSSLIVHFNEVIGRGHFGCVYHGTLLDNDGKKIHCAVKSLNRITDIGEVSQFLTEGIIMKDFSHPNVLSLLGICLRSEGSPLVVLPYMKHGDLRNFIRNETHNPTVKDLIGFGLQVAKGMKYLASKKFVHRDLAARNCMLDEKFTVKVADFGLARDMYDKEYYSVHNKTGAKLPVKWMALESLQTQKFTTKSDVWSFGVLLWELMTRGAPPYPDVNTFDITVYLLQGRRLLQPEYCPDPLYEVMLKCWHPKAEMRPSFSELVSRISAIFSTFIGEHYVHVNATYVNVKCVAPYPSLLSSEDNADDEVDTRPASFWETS

As for `COCCN1CCC(C#Cc2c(Oc3ccc(NC(=O)c4ccnn(-c5ccc(F)cc5)c4=O)cc3F)ccnc2N)CC1` [Example 27, N-(4-(2-amino-3-((1-(2-methoxyethyl)piperidin-4-yl)ethynyl)pyridin-4-yloxy)-3-fluorophenyl)-2-(4-fluorophenyl)-3-oxo-2,3-dihydropyridazine-4-carboxamide], the IC50 at C-MET (setting [1]), against AXL and at MER was < 10 nM each time.
As to `CC(C)(C#Cc1c(Oc2ccc(NC(=O)c3ccnn(-c4ccc(F)cc4)c3=O)cc2F)ccnc1N)N1CCOCC1` [Example 28, N-(4-(2-amino-3-(3-methyl-3-morpholinobut-1-ynl)pyridin-4-yloxy)-3-fluorophenyl)-2-(4-fluorophenyl)-3-oxo-2,3-dihydropyridazine-4-carboxamide], the IC50 at C-MET (setting [1]) is < 10 nM; on AXL, < 10 nM; at MER, < 100 nM.
With `CN1CCN(CC#Cc2c(Oc3ccc(NC(=O)c4ccnn(-c5ccc(F)cc5)c4=O)cc3F)ccnc2N)CC1` [Example 29, N-(4-(2-amino-3-(3-(4-methylpiperazin-1-yl)prop-1-ynyl)pyridin-4-yloxy)-3-fluorophenyl)-2-(4-fluorophenyl)-3-oxo-2,3-dihydropyridazine-4-carboxamide], the IC50 at C-MET (setting [1]), against AXL and against MER was < 10 nM in each case.
As for `Nc1nccc(Oc2ccc(NC(=O)c3ccnn(-c4ccc(F)cc4)c3=O)cc2F)c1C#CCC1CCNCC1` [Example 30, N-(4-(2-amino-3-(3-(piperidin-4-yl)prop-1-ynyl)pyridin-4-yloxy)-3-fluorophenyl)-2-(4-fluorophenyl)-3-oxo-2,3-dihydropyridazine-4-carboxamide], the IC50 against C-MET, on AXL and on MER was < 10 nM each time.
Consider `COCCN1CCC(CC#Cc2c(Oc3ccc(NC(=O)c4ccnn(-c5ccc(F)cc5)c4=O)cc3F)ccnc2N)CC1` [Example 31, N-(4-(2-amino-3-(3-(1-(2-methoxyethyl)piperidin-4-yl)prop-1-ynyl)pyridin-4-yloxy)-3-fluorophenyl)-2-(4-fluorophenyl)-3-oxo-2,3-dihydropyridazine-4-carboxamide], for which the IC50 on C-MET (setting [1]) is < 10 nM; against AXL it was < 100 nM; against MER it was < 100 nM.
As to `CC(C)N1CCC(CC#Cc2c(Oc3ccc(NC(=O)c4ccnn(-c5ccc(F)cc5)c4=O)cc3F)ccnc2N)CC1` [Example 32, N-(4-(2-amino-3-(3-(1-isopropylpiperidin-4-yl)prop-1-ynyl)pyridin-4-yloxy)-3-fluorophenyl)-2-(4-fluorophenyl)-3-oxo-2,3-dihydropyridazine-4-carboxamide], the IC50 on C-MET (setting [1]), against AXL and at MER was < 100 nM in each case.

The values above are taken from patent publication US20230257364A1, “PYRIDAZINONE-BASED COMPOUNDS AS AXL, C-MET, AND MER INHIBITORS AND METHODS OF USE THEREOF” (CMG Pharmaceutical Co., Ltd., priority 2022, published 2023).
